Drawing on patent publication US20230234948A1, “CYCLOPROPYL DIHYDROQUINOLINE SULFONAMIDE COMPOUNDS” (AMGEN INC., priority 2020, published 2023), this text covers IC50 for 21 compounds.

Molecules are shown by their SMILES.

T1 sequence (Q15858 whole entry): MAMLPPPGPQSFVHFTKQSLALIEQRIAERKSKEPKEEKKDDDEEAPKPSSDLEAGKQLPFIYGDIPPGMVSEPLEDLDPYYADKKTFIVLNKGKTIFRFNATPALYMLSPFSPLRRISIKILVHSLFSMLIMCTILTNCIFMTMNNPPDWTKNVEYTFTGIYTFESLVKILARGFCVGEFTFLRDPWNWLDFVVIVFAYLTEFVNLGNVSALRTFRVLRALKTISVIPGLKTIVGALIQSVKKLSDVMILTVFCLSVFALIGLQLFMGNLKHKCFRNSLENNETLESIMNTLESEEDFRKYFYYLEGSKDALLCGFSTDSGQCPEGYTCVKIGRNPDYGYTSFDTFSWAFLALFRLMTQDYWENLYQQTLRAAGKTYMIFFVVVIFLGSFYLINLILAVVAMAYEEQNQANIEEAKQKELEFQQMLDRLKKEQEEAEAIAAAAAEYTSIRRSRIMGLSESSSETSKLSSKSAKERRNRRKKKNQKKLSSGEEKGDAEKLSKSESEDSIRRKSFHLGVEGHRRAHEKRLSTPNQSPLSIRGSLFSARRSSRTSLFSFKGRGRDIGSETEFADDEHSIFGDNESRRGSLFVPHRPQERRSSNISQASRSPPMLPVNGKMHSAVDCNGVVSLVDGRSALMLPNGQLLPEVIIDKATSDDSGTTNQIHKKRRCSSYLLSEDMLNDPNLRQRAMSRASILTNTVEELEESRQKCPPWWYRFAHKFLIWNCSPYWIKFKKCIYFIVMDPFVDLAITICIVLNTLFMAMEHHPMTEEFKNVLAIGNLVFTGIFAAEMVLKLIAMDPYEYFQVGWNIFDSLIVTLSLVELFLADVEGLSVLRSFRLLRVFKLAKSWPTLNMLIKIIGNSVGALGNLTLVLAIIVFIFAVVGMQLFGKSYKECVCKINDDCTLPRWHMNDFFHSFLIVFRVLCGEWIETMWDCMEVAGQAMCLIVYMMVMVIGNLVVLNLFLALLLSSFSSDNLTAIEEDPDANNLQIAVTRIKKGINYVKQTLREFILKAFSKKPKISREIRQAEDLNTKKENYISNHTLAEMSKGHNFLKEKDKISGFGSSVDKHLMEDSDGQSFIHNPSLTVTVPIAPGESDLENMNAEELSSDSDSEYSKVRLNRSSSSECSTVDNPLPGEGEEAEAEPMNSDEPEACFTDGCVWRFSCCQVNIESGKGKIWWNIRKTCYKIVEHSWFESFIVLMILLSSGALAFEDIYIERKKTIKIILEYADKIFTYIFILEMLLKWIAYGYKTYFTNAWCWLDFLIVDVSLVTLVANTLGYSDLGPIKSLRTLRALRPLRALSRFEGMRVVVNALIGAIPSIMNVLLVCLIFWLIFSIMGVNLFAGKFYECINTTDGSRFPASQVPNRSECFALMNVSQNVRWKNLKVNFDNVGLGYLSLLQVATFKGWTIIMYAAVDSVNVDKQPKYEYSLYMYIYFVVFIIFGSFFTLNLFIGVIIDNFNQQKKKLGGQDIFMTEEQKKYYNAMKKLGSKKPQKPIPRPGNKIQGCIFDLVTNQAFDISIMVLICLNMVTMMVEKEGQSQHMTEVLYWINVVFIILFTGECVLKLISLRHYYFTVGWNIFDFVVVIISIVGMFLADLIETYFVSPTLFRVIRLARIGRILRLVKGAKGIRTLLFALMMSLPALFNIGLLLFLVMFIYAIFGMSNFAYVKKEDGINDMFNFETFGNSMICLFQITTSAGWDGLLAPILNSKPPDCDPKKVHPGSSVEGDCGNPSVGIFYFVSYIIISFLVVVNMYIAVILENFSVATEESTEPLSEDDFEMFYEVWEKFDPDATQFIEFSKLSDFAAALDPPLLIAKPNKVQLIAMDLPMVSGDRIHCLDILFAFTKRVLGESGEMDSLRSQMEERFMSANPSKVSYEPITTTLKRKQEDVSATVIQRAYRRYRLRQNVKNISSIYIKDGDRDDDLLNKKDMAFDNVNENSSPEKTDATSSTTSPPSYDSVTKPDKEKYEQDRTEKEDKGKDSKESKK

The experiment concerns the target T1, Human NaV1.7 (Homo sapiens, UniProt Q15858).
T1 construct: expressed in transfected cells; host or cells: Spiking HEK cells (without Kir2.1 transfection)
The experiment in a line: Ionworks Barracuda (IWB) automated patch clamp assay. Format: cell-based. To be noted: human NaV1.7 in HEK cells, population patch-clamp, state- and use-dependent voltage protocol; read-out: hNaV1.7 IWB-U IC50. Here is the method:
Ionworks Barracuda (IWB) Automated Patch Clamp Assay (Same Protocol for Both Human and Mouse)
Human NaV1.7 currents were recorded in population patch-clamp mode with the IWB automated electrophysiology system (Molecular Devices, LLC, Sunnyvale, Calif.). Spiking HEK cells (without Kir2.1 transfection) were cultured and prepared for recordings as previously described for IonWorks Quattro testing^1. The external solution consisted of the following (in mM): NaCl 140, KCl 5, CaCl2 2, MgCl2 1, HEPES 10, and glucose 11, pH 7.4, with N-methyl-D-glucamine at 320 mOsmol. […] From a holding potential of −110 mV, currents were elicited by a train of 26 depolarizations of 150 ms duration to −20 mV at a frequency of 5 Hz. Cells were then clamped to −20 mV for a period of 4 minutes in the presence of a single concentration of test compound. Following this compound incubation period, cells were clamped to −110 mV for three seconds to recover unbound channels and put through the same 26 pulse voltage protocol as above. Peak inward current during the 26th pulse to −20 mV in the presence of compound was divided by the peak inward current evoked by the 26th pulse to −20 mV in the absence of compound to determine percent inhibition. Concentration-response curves of percent inhibition as a function of concentration were generated to calculate IC50 values as described in Kornecook, T. J.; Yin, R.; Altmann, S.; et al. Pharmacologic Characterization of AMG8379, a Potent and Selective Small Molecule Sulfonamide Antagonist of the Voltage-Gated Sodium Channel NaV1. 7.
The potency of the compounds of the present invention were evaluated on human NaV1.7 channels using the above described IonWorks Barracuda automated electrophysiology platform that evaluates the ability of compounds to block sodium conductance through NaV1.7 channels. A voltage-protocol that prosecutes both state-dependent as well as use-dependent inhibition was used as these modes of action are thought to be more relevant for the native state of NaV1.7 channels in pain sensing neurons in vivo.
In general terms: In patch-clamp work, channel activity is measured electrically.
`COc1cc([C@H]2C[C@@H]2C(F)(F)F)c(F)cc1-n1c(=O)ccc2cc(S(=O)(=O)Nc3ccon3)ccc21` (atropisomer, axis not shown; (P)) [Example 4, (P)-1-(5-fluoro-2-methoxy-4-((1S,2S)-2-(trifluoromethyl)cyclopropyl)phenyl)-N-(isoxazol-3-yl)-2-oxo-1,2-dihydroquinoline-6-sulfonamide]: the IC50 (commonly the point on the concentration scale where inhibition reaches its midpoint) amounted to 11 nM.
Take `COc1cc([C@@H]2C[C@H]2C(F)(F)F)c(F)cc1-n1c(=O)ccc2cc(S(=O)(=O)Nc3ccon3)ccc21` (atropisomer, axis not shown; (P)) [Example 5, (P)-1-(5-fluoro-2-methoxy-4-((1R,2R)-2-(trifluoromethyl)cyclopropyl)phenyl)-N-(isoxazol-3-yl)-2-oxo-1,2-dihydroquinoline-6-sulfonamide]: the IC50 came out at 9 nM.
In the case of `COc1cc([C@@H]2C[C@H]2C)c(F)cc1-n1c(=O)ccc2cc(S(=O)(=O)Nc3ccon3)ccc21` (atropisomer, axis not shown; (P)) [Example 6, (P)-1-(5-fluoro-2-methoxy-4-((1R,2R)-2-methylcyclopropyl)phenyl)-N-(isoxazol-3-yl)-2-oxo-1,2-dihydroquinoline-6-sulfonamide], the IC50 is 20 nM.
`COc1cc([C@H]2C[C@@H]2C)c(F)cc1-n1c(=O)ccc2cc(S(=O)(=O)Nc3ccon3)ccc21` (atropisomer, axis not shown; (P)) [Example 7, (P)-1-(5-fluoro-2-methoxy-4-((1S,2S)-2-methylcyclopropyl)phenyl)-N-(isoxazol-3-yl)-2-oxo-1,2-dihydroquinoline-6-sulfonamide]: the IC50 was 16 nM.
On to `COc1cc([C@@H]2C[C@H]2c2ccccc2)c(F)cc1-n1c(=O)ccc2cc(S(=O)(=O)Nc3ccon3)ccc21` (atropisomer, axis not shown; (P)) [Example 8, (P)-1-(5-fluoro-2-methoxy-4-((1R,2R)-2-phenylcyclopropyl)phenyl)-N-(isoxazol-3-yl)-2-oxo-1,2-dihydroquinoline-6-sulfonamide], for which the IC50 turned out to be 8 nM.
The result for `COc1cc([C@H]2C[C@@H]2c2ccccc2)c(F)cc1-n1c(=O)ccc2cc(S(=O)(=O)Nc3ccon3)ccc21` (atropisomer, axis not shown; (P)) [Example 9, (P)-1-(5-fluoro-2-methoxy-4-((1S,2S)-2-phenylcyclopropyl)phenyl)-N-(isoxazol-3-yl)-2-oxo-1,2-dihydroquinoline-6-sulfonamide] reads 4 nM.
For the compound `COc1cc([C@H]2CC2(F)F)c(F)cc1-n1c(=O)ccc2cc(S(=O)(=O)Nc3ccon3)ccc21` (atropisomer, axis not shown; (P)) [Example 10, (P)-(R)-1-(4-(2,2-difluorocyclopropyl)-5-fluoro-2-methoxyphenyl)-N-(isoxazol-3-yl)-2-oxo-1,2-dihydroquinoline-6-sulfonamide], the IC50 was found to be 66 nM.
As to `COc1cc([C@@H]2CC2(F)F)c(F)cc1-n1c(=O)ccc2cc(S(=O)(=O)Nc3ccon3)ccc21` (atropisomer, axis not shown; (P)) [Example 11, (P)-(S)-1-(4-(2,2-difluorocyclopropyl)-5-fluoro-2-methoxyphenyl)-N-(isoxazol-3-yl)-2-oxo-1,2-dihydroquinoline-6-sulfonamide], the IC50 was 59 nM.
As to `COc1cc([C@H]2C[C@@H]2C(F)(F)F)c(Cl)cc1-n1c(=O)ccc2cc(S(=O)(=O)Nc3ncccn3)ccc21` (atropisomer, axis not shown; (P)) [Example 12, (P)-1-(5-chloro-2-methoxy-4-((1S,2S)-2-(trifluoromethyl)cyclopropyl)phenyl)-2-oxo-N-(pyrimidin-2-yl)-1,2-dihydroquinoline-6-sulfonamide], the IC50 worked out at 17 nM.
With `COc1cc([C@@H]2C[C@H]2C(F)(F)F)c(Cl)cc1-n1c(=O)ccc2cc(S(=O)(=O)Nc3ncccn3)ccc21` (atropisomer, axis not shown; (P)) [Example 13, (P)-1-(5-chloro-2-methoxy-4-((1R,2R)-2-(trifluoromethyl)cyclopropyl)phenyl)-2-oxo-N-(pyrimidin-2-yl)-1,2-dihydroquinoline-6-sulfonamide], the IC50 worked out at 12 nM.
As for `COc1cc([C@@H]2C[C@H]2C(F)(F)F)c(F)cc1-n1c(=O)ccc2cc(S(=O)(=O)Nc3cccnn3)ccc21` (atropisomer, axis not shown; (P)) [Example 16, (P)-1-(5-fluoro-2-methoxy-4-((1R,2R)-2-(trifluoromethyl)cyclopropyl)phenyl)-2-oxo-N-(pyridazin-3-yl)-1,2-dihydroquinoline-6-sulfonamide], the IC50 came out at 19 nM.
For `COc1cc([C@H]2C[C@@H]2C(F)(F)F)c(F)cc1-n1c(=O)ccc2cc(S(=O)(=O)Nc3cccnn3)ccc21` (atropisomer, axis not shown; (P)) [Example 17, (P)-1-(5-fluoro-2-methoxy-4-((1S,2S)-2-(trifluoromethyl)cyclopropyl)phenyl)-2-oxo-N-(pyridazin-3-yl)-1,2-dihydroquinoline-6-sulfonamide], the IC50 worked out at 16 nM.
As to `COc1cc([C@@H]2C[C@H]2C(F)(F)F)c(Cl)cc1-n1c(=O)ccc2cc(S(=O)(=O)Nc3ccon3)ccc21` (atropisomer, axis not shown; (P)) [Example 18, (P)-1-(5-chloro-2-methoxy-4-((1R,2R)-2-(trifluoromethyl)cyclopropyl)phenyl)-N-(isoxazol-3-yl)-2-oxo-1,2-dihydroquinoline-6-sulfonamide], the IC50 is 7 nM.
As to `COc1cc([C@H]2C[C@@H]2C(F)(F)F)c(Cl)cc1-n1c(=O)ccc2cc(S(=O)(=O)Nc3ccon3)ccc21` (atropisomer, axis not shown; (P)) [Example 19, (P)-1-(5-chloro-2-methoxy-4-((1S,2S)-2-(trifluoromethyl)cyclopropyl)phenyl)-N-(isoxazol-3-yl)-2-oxo-1,2-dihydroquinoline-6-sulfonamide], the 50% inhibitory concentration (IC50) stood at 6 nM.
For `COc1cc([C@@H]2C[C@H]2C(F)(F)F)c(F)cc1-n1c(=O)ccc2cc(S(=O)(=O)Nc3ncccn3)ccc21` (atropisomer, axis not shown; (P)) [Example 20, (P)-1-(5-fluoro-2-methoxy-4-((1R,2R)-2-(trifluoromethyl)cyclopropyl)phenyl)-2-oxo-N-(pyrimidin-2-yl)-1,2-dihydroquinoline-6-sulfonamide], the IC50 came to 24 nM.
As for `COc1cc([C@H]2C[C@@H]2C(F)(F)F)c(F)cc1-n1c(=O)ccc2cc(S(=O)(=O)Nc3ncccn3)ccc21` (atropisomer, axis not shown; (P)) [Example 21, (P)-1-(5-fluoro-2-methoxy-4-((1S,2S)-2-(trifluoromethyl)cyclopropyl)phenyl)-2-oxo-N-(pyrimidin-2-yl)-1,2-dihydroquinoline-6-sulfonamide], the figure is 35 nM.
In the case of `COc1cc(C2(C(F)(F)F)CC2)c(F)cc1-n1c(=O)ccc2cc(S(=O)(=O)Nc3ncccn3)ccc21` (atropisomer, axis not shown; (P)) [Example 23, (P)-1-(5-fluoro-2-methoxy-4-(1-(trifluoromethyl)cyclopropyl)phenyl)-2-oxo-N-(pyrimidin-2-yl)-1,2-dihydroquinoline-6-sulfonamide], the IC50 turned out to be 16 nM.
On to `COc1cc(C2(C(F)(F)F)CC2)c(Cl)cc1-n1c(=O)ccc2cc(S(=O)(=O)Nc3ccon3)ccc21` (atropisomer, axis not shown; (P)) [Example 24, (P)-1-(5-chloro-2-methoxy-4-(1-(trifluoromethyl)cyclopropyl)phenyl)-N-(isoxazol-3-yl)-2-oxo-1,2-dihydroquinoline-6-sulfonamide], for which the IC50 stood at 6 nM.
For `COc1cc(C2(C(F)(F)F)CC2)c(Cl)cc1-n1c(=O)ccc2cc(S(=O)(=O)Nc3ncccn3)ccc21` (atropisomer, axis not shown; (P)) [Example 25, (P)-1-(5-chloro-2-methoxy-4-(1-(trifluoromethyl)cyclopropyl)phenyl)-2-oxo-N-(pyrimidin-2-yl)-1,2-dihydroquinoline-6-sulfonamide], the IC50 was 22 nM.
Take `COc1cc([C@@H]2C[C@H]2C(F)(F)F)c(C)cc1-n1c(=O)ccc2cc(S(=O)(=O)Nc3ncccn3)ccc21` (atropisomer, axis not shown; (P)) [Example 28, (P)-1-(2-methoxy-5-methyl-4-((1R,2R)-2-(trifluoromethyl)cyclopropyl)phenyl)-2-oxo-N-(pyrimidin-2-yl)-1,2-dihydroquinoline-6-sulfonamide]: the IC50 was 42 nM.
For the compound `COc1cc([C@H]2C[C@@H]2C(F)(F)F)c(C)cc1-n1c(=O)ccc2cc(S(=O)(=O)Nc3ncccn3)ccc21` (atropisomer, axis not shown; (P)) [Example 29, (P)-1-(2-methoxy-5-methyl-4-((1S,2S)-2-(trifluoromethyl)cyclopropyl)phenyl)-2-oxo-N-(pyrimidin-2-yl)-1,2-dihydroquinoline-6-sulfonamide], the IC50 came to 32 nM.
